The values below come from patent US20260224494A1, “MILVEXIAN PHARMACEUTICAL COMPOSITIONS” (BRISTOL-MYERS SQUIBB COMPANY, priority 2023, published 2026).

Values after ≈ are worked out from the molar mass of the structure shown. Read-outs that look alike come from different tables or passages of the source.

A short description of this series: Solubility of milvexian forms in organic solvent systems. The class given is physicochemical. The procedure:
While heating of the feed solution is a viable solution for production, it is a more complex set-up and with risk of crashing out dissolved solids in case of cold spots and plant safety. Various solvent systems (See Table 11 below) were investigated with primary focus on solvent systems containing DCM due to its low boiling point and excellent solubilization properties.
Based on the data it was determined that 70/30 w/w % DCM/MeOH and 80/20 w/w % were promising solvent mixtures and more accurate solubility determination was carried out for 80/20 w/w % DCM/MeOH for both FORM A and P1.Acetone solvate at 20° C. with the results shown in Table 12 below.
P1.Acetone was the preferred crystalline form of milvexian for physical stability and manufacturability reasons. Based on the above, 80/20 w/w % DCM/MeOH solvent system was selected for development due to highly increase solubility over the 90/10 w/w % Acetone/Water solvent system.

For the compound `C[C@@H]1CCC[C@H](n2cnc(-c3cc(Cl)ccc3-n3cc(Cl)nn3)cc2=O)c2cc(ccn2)-c2c(cnn2C(F)F)NC1=O`, the solubility (80/20 w/w % DCM/MeOH, 20 °C, organic solvent or mixture, 80/20 w/w % DCM/MeOH, read-out: solubility) was found to be 230 mg/mL (≈ 367 mM).

As to `C[C@@H]1CCC[C@H](n2cnc(-c3cc(Cl)ccc3-n3cc(Cl)nn3)cc2=O)c2cc(ccn2)-c2c(cnn2C(F)F)NC1=O` [FORM A], where the note is “70/30 DCM/MeOH, 20 °C, organic solvent or mixture, thermodynamic from solid, 70/30 DCM/MeOH, 20° C., 24 hours, read-out: Solubility in mg/mL solution 24 hours”, the solubility at 24 hours turned out to be 221 mg/mL (≈ 353 mM). The “Solubility in mg/mL solution 2 weeks” value runs as follows: (70/30 DCM/MeOH, 20° C.) 204 mg/mL (≈ 326 mM); (80/20 DCM/MeOH, 20° C.) 255 mg/mL (≈ 407 mM). Moreover, under “80/20 DCM/MeOH, 20° C., 24 hours”, the “Solubility in mg/mL solution 24 hours” value was found to be 272 mg/mL (≈ 434 mM). In addition, the solubility (80/20 w/w % DCM/MeOH, listed as crystalline Form A of milvexian free form) is on record as 255 mg/mL (≈ 407 mM) and the solubility (DCM/MeOH solvent systems of Table 12, 20 °C, organic solvent or mixture, DCM/MeOH solvent systems of Table 12, read-out: solubilities achievable) is over 220 mg/mL.
